# Reference: ChEMBL document CHEMBL4616703, “Benzoxazepine-Derived Selective, Orally Bioavailable Inhibitor of Human Acidic Mammalian Chitinase” (ACS Med Chem Lett, 2020)
# Tested on: not listed separately
# Assay: Clearance in BALB/c mouse at 3 mg/kg, iv administered as single bolus dose measured after 24 hrs by LC-MS/MS analysis
# Type: ADME, organism-based
# Details: in vivo
row,Structure (SMILES),clearance [mL/min/kg]
1,Nc1nnc(N2CCC(N3Cc4ccccc4OC[C@@H]3Cc3ccc(Cl)cc3)CC2)[nH]1,16.7

# Tested on: not listed separately
# Assay: Volume of distribution at steady state in BALB/c mouse at 3 mg/kg, iv administered as single bolus dose measured after 24 hrs by LC-MS/MS analysis
# Type: ADME, organism-based
# Details: in vivo, read-out: Vdss
row,Structure (SMILES),Vd [L/kg]
1,Nc1nnc(N2CCC(N3Cc4ccccc4OC[C@@H]3Cc3ccc(Cl)cc3)CC2)[nH]1,0.35

# Biological target: Acidic mammalian chitinase (Homo sapiens, UniProt Q9BZP6)
# Assay: Inhibition of full length recombinant C-terminal His-tagged human acidic mammalian chitinase expressed in CHOK1 cells assessed as reduction in chitinolytic activity using 4-methylumbelliferyl-beta-D-N,N-diacetylchitobioside hydrate as substrate incubated for 60 mins under shaking condition by microplate fluorometry analysis
# Set-up: species or system CHO-K1
# Details: not given
# Sequence of Acidic mammalian chitinase (Q9BZP6 whole entry): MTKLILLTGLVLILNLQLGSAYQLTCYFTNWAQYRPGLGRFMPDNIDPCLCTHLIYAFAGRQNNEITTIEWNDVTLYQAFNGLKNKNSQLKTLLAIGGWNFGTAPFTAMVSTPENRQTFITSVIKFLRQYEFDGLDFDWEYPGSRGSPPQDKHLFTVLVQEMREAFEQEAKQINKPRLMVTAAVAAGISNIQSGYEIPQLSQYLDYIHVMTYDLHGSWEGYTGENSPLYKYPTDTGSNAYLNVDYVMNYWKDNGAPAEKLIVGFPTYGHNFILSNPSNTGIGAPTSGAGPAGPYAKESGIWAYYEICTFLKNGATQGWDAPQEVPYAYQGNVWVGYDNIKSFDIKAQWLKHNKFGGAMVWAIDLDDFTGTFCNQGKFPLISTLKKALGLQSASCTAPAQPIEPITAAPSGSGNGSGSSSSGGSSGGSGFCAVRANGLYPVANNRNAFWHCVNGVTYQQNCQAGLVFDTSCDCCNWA
row,Structure (SMILES),IC50 [nM]
1,Nc1nc(N2CCC(N(CCc3ccc(Cl)cc3)Cc3ccc(F)cc3Cl)CC2)n[nH]1,5
2,CN1C[C@H](Cc2ccc(Cl)cc2)N(C2CCN(c3nnc(N)[nH]3)CC2)Cc2ccccc21,1.4
3,Nc1nnc(N2CCC(N3Cc4cc(Cl)ccc4OC[C@@H]3Cc3ccc(Cl)cc3)CC2)[nH]1,8
4,Nc1nnc(N2CCC(N3Cc4ccccc4OC[C@@H]3Cc3ccc(Cl)cc3)CC2)[nH]1,7
5,Nc1nc(N2CCC(N(CCc3ccc(Cl)cc3)Cc3cccc(C(F)(F)F)c3)CC2)n[nH]1,12
6,CN1C[C@H](Cc2ccc(Cl)cc2)N(C2CCN(c3nnc(N)[nH]3)CC2)Cc2cc(Cl)ccc21,0.7
7,C=C1COC[C@H](Cc2ccc(Cl)cc2)N(C2CCN(c3nnc(N)[nH]3)CC2)C1,12

# More lines, in order of falling IC50, values ahead:
row,IC50 [nM],Structure (SMILES)
1,580,CN(C1CCN(c2n[nH]c(N)n2)CC1)[C@H](COc1ccc(Cl)cc1)Cc1ccc(Cl)cc1
2,68,Nc1nnc(N2CCC(N3Cc4cc(Cl)cc(Cl)c4OC[C@@H]3Cc3ccc(Cl)cc3)CC2)[nH]1
3,15,Nc1nc(N2CCC(N(CCc3ccc(Cl)cc3)Cc3ccncc3Cl)CC2)n[nH]1
4,2,Nc1nc(N2CCC(N(CCc3ccc(Cl)cc3)Cc3cccc(O)c3)CC2)n[nH]1
5,2,Nc1nc(N2CCC(N(CCc3ccc(Cl)cc3)Cc3ccccc3O)CC2)n[nH]1

# Biological target: Chitotriosidase-1 (Homo sapiens, UniProt Q13231)
# Assay: Inhibition of full length recombinant C-terminal His-taged human CHIT1 expressed in CHOK1 cells assessed as reduction in chitinolytic activity using 4-methylumbelliferyl-beta-D-N,N',N''-[…] as substrate incubated for 60 mins under shaking condition by microplate fluorometry analysis
# Set-up: species or system CHO-K1
# Details: not given
# Sequence of Chitotriosidase-1 (Q13231 whole entry): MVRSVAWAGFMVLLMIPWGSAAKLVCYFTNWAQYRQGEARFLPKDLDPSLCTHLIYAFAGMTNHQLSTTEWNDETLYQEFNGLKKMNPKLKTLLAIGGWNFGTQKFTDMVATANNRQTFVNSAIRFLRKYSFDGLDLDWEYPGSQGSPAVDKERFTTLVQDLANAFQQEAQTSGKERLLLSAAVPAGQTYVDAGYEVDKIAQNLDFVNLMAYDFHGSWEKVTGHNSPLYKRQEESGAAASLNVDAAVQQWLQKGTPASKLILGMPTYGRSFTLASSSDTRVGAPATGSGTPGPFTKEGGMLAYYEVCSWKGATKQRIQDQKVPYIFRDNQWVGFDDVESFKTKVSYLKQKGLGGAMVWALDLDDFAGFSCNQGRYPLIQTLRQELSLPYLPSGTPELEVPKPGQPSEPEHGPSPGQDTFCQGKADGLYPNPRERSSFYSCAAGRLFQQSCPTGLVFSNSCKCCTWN
row,Structure (SMILES),IC50 [nM]
1,Nc1nc(N2CCC(N(CCc3ccc(Cl)cc3)Cc3ccc(F)cc3Cl)CC2)n[nH]1,200
2,CN1C[C@H](Cc2ccc(Cl)cc2)N(C2CCN(c3nnc(N)[nH]3)CC2)Cc2ccccc21,275
3,Nc1nnc(N2CCC(N3Cc4cc(Cl)ccc4OC[C@@H]3Cc3ccc(Cl)cc3)CC2)[nH]1,2300
4,Nc1nnc(N2CCC(N3Cc4ccccc4OC[C@@H]3Cc3ccc(Cl)cc3)CC2)[nH]1,915
5,Nc1nc(N2CCC(N(CCc3ccc(Cl)cc3)Cc3cccc(C(F)(F)F)c3)CC2)n[nH]1,310
6,CN1C[C@H](Cc2ccc(Cl)cc2)N(C2CCN(c3nnc(N)[nH]3)CC2)Cc2cc(Cl)ccc21,420
7,C=C1COC[C@H](Cc2ccc(Cl)cc2)N(C2CCN(c3nnc(N)[nH]3)CC2)C1,350

# The remaining lines, values ahead:
row,IC50 [nM],Structure (SMILES)
1,16000,CN(C1CCN(c2n[nH]c(N)n2)CC1)[C@H](COc1ccc(Cl)cc1)Cc1ccc(Cl)cc1
2,> 20000,Nc1nnc(N2CCC(N3Cc4cc(Cl)cc(Cl)c4OC[C@@H]3Cc3ccc(Cl)cc3)CC2)[nH]1
3,620,Nc1nc(N2CCC(N(CCc3ccc(Cl)cc3)Cc3ccncc3Cl)CC2)n[nH]1
4,79,Nc1nc(N2CCC(N(CCc3ccc(Cl)cc3)Cc3cccc(O)c3)CC2)n[nH]1
5,49,Nc1nc(N2CCC(N(CCc3ccc(Cl)cc3)Cc3ccccc3O)CC2)n[nH]1

# Biological target: T1, Voltage-gated inwardly rectifying potassium channel KCNH2 (Homo sapiens, UniProt Q12809)
# Assay: Displacement of Tracer Red from human ERG by fluorescence polarization assay
# Details: not given
# T1 sequence (Q12809 whole entry): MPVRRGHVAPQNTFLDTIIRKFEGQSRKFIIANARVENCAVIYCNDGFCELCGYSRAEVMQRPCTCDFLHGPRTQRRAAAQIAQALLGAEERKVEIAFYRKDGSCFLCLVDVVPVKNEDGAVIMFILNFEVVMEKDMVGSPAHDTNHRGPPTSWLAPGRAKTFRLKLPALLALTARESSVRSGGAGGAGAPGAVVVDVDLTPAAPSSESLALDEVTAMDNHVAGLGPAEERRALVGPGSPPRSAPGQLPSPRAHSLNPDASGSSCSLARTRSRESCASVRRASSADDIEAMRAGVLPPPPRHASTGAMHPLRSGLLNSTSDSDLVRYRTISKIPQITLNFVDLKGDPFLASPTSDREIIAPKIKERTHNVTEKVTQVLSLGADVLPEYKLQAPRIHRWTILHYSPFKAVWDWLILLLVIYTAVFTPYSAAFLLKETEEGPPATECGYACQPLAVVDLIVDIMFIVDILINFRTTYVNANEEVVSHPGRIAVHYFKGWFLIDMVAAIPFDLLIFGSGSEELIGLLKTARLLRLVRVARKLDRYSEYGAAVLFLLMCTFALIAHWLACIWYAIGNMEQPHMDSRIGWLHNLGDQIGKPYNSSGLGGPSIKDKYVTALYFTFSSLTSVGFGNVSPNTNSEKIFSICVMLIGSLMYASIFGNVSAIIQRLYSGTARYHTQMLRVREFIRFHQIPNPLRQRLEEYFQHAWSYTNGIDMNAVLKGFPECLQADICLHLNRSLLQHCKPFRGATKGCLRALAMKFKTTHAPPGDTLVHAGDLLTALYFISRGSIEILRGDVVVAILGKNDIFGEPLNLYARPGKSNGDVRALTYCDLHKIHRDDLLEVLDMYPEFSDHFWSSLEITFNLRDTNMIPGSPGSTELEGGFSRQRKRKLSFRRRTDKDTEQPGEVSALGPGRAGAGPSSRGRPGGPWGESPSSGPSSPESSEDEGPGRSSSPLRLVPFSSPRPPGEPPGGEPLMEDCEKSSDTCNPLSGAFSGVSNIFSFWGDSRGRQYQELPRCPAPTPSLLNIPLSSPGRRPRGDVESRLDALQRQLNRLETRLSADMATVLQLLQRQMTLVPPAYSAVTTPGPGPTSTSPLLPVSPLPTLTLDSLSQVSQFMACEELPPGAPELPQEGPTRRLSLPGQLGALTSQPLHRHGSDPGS
row,Structure (SMILES),IC50 [nM]
1,Nc1nc(N2CCC(N(CCc3ccc(Cl)cc3)Cc3cccc(O)c3)CC2)n[nH]1,150
2,CN1C[C@H](Cc2ccc(Cl)cc2)N(C2CCN(c3nnc(N)[nH]3)CC2)Cc2ccccc21,3200
3,Nc1nc(N2CCC(N(CCc3ccc(Cl)cc3)Cc3ccncc3Cl)CC2)n[nH]1,6400
4,Nc1nc(N2CCC(N(CCc3ccc(Cl)cc3)Cc3ccccc3O)CC2)n[nH]1,100
5,Nc1nnc(N2CCC(N3Cc4cc(Cl)cc(Cl)c4OC[C@@H]3Cc3ccc(Cl)cc3)CC2)[nH]1,6000
6,Nc1nnc(N2CCC(N3Cc4cc(Cl)ccc4OC[C@@H]3Cc3ccc(Cl)cc3)CC2)[nH]1,6700
7,Nc1nnc(N2CCC(N3Cc4ccccc4OC[C@@H]3Cc3ccc(Cl)cc3)CC2)[nH]1,22000
8,Nc1nc(N2CCC(N(CCc3ccc(Cl)cc3)Cc3cccc(C(F)(F)F)c3)CC2)n[nH]1,2700
9,CN1C[C@H](Cc2ccc(Cl)cc2)N(C2CCN(c3nnc(N)[nH]3)CC2)Cc2cc(Cl)ccc21,800

# Tested on: not listed separately
# Assay: AUC (0 to infinity) in Sprague-Dawley rat at 10 mg/kg, po administered as single dose measured after 24 hrs by LC-MS/MS analysis
# Type: ADME, organism-based
# Set-up: dose 10 mg/kg, time infinity, route oral
# Details: in vivo
row,Structure (SMILES),AUC(0-inf) [ng·h/mL]
1,Nc1nc(N2CCC(N(CCc3ccc(Cl)cc3)Cc3ccc(F)cc3Cl)CC2)n[nH]1,7500
2,Nc1nc(N2CCC(N(CCc3ccc(Cl)cc3)Cc3ccncc3Cl)CC2)n[nH]1,430
3,Nc1nc(N2CCC(N(CCc3ccc(Cl)cc3)Cc3cccc(C(F)(F)F)c3)CC2)n[nH]1,13700

# Tested on: not listed separately
# Assay: AUC (0 to infinity) in BALB/c mouse at 3 mg/kg, iv administered as single dose measured after 24 hrs by LC-MS/MS analysis
# Type: ADME, organism-based
# Set-up: dose 3 mg/kg, route intravenous, time infinity
# Details: in vivo
row,Structure (SMILES),AUC(0-inf) [ng·h/mL]
1,Nc1nnc(N2CCC(N3Cc4ccccc4OC[C@@H]3Cc3ccc(Cl)cc3)CC2)[nH]1,2900

# Tested on: not listed separately
# Assay: Cmax in BALB/c mouse at 3 mg/kg, iv administered as single bolus dose measured after 24 hrs by LC-MS/MS analysis
# Type: ADME, organism-based
# Set-up: dose 3 mg/kg, route intravenous
# Details: in vivo
row,Structure (SMILES),Cmax [ng/mL]
1,Nc1nnc(N2CCC(N3Cc4ccccc4OC[C@@H]3Cc3ccc(Cl)cc3)CC2)[nH]1,9500

# Tested on: not listed separately
# Assay: Half life in BALB/c mouse at 3 mg/kg, iv administered as single bolus dose measured after 24 hrs by LC-MS/MS analysis
# Type: ADME, organism-based
# Details: in vivo
row,Structure (SMILES),half-life [min]
1,Nc1nnc(N2CCC(N3Cc4ccccc4OC[C@@H]3Cc3ccc(Cl)cc3)CC2)[nH]1,84

# Tested on: not listed separately
# Assay: Mean residence time in BALB/c mouse at 3 mg/kg, iv administered as single bolus dose measured after 24 hrs by LC-MS/MS analysis
# Type: ADME, organism-based
# Details: in vivo
row,Structure (SMILES),MRT [min]
1,Nc1nnc(N2CCC(N3Cc4ccccc4OC[C@@H]3Cc3ccc(Cl)cc3)CC2)[nH]1,20.4

# Tested on: not listed separately
# Assay: AUC (0 to infinity) in BALB/c mouse at 10 mg/kg, po administered as single dose measured after 24 hrs by LC-MS/MS analysis
# Type: ADME, organism-based
# Set-up: dose 10 mg/kg, route oral, time infinity
# Details: in vivo
row,Structure (SMILES),AUC(0-inf) [ng·h/mL]
1,Nc1nnc(N2CCC(N3Cc4ccccc4OC[C@@H]3Cc3ccc(Cl)cc3)CC2)[nH]1,3900

# Tested on: not listed separately
# Assay: Cmax in BALB/c mouse at 10 mg/kg, po administered as single dose measured after 24 hrs by LC-MS/MS analysis
# Type: ADME, organism-based
# Set-up: dose 10 mg/kg, route oral
# Details: in vivo
row,Structure (SMILES),Cmax [ng/mL]
1,Nc1nnc(N2CCC(N3Cc4ccccc4OC[C@@H]3Cc3ccc(Cl)cc3)CC2)[nH]1,3100

# Tested on: not listed separately
# Assay: Tmax in BALB/c mouse at 10 mg/kg, po administered as single dose measured after 24 hrs by LC-MS/MS analysis
# Type: ADME, organism-based
# Details: in vivo
row,Structure (SMILES),Tmax [min]
1,Nc1nnc(N2CCC(N3Cc4ccccc4OC[C@@H]3Cc3ccc(Cl)cc3)CC2)[nH]1,30

# Tested on: not listed separately
# Assay: Half life in BALB/c mouse at 10 mg/kg, po administered as single dose measured after 24 hrs by LC-MS/MS analysis
# Type: ADME, organism-based
# Details: in vivo
row,Structure (SMILES),half-life [min]
1,Nc1nnc(N2CCC(N3Cc4ccccc4OC[C@@H]3Cc3ccc(Cl)cc3)CC2)[nH]1,66

# Tested on: not listed separately
# Assay: Mean residence time in BALB/c mouse at 10 mg/kg, po administered as single dose measured after 24 hrs by LC-MS/MS analysis
# Type: ADME, organism-based
# Details: in vivo
row,Structure (SMILES),MRT [min]
1,Nc1nnc(N2CCC(N3Cc4ccccc4OC[C@@H]3Cc3ccc(Cl)cc3)CC2)[nH]1,50.4

# Tested on: not listed separately
# Assay: Oral bioavailability in BALB/c mouse at 10 mg/kg administered as single dose measured after 24 hrs by LC-MS/MS analysis
# Type: ADME, organism-based
# Details: in vivo
row,Structure (SMILES),bioavailability [%]
1,Nc1nnc(N2CCC(N3Cc4ccccc4OC[C@@H]3Cc3ccc(Cl)cc3)CC2)[nH]1,41

# Tested on: not listed separately
# Assay: AUC(0 to infinity) in Sprague-Dawley rat at 10 mg/kg, po administered as single dose measured after 24 hrs by LC-MS/MS analysis
# Type: ADME, organism-based
# Set-up: dose 10 mg/kg, route oral, time infinity
# Details: in vivo
row,Structure (SMILES),AUC(0-inf) [ng·h/mL]
1,Nc1nnc(N2CCC(N3Cc4ccccc4OC[C@@H]3Cc3ccc(Cl)cc3)CC2)[nH]1,22500

# Tested on: not listed separately
# Assay: Cmax in Sprague-Dawley rat at 10 mg/kg, po administered as single dose measured after 24 hrs by LC-MS/MS analysis
# Type: ADME, organism-based
# Set-up: dose 10 mg/kg, route oral
# Details: in vivo
row,Structure (SMILES),Cmax [ng/mL]
1,Nc1nc(N2CCC(N(CCc3ccc(Cl)cc3)Cc3ccc(F)cc3Cl)CC2)n[nH]1,690
2,Nc1nc(N2CCC(N(CCc3ccc(Cl)cc3)Cc3ccncc3Cl)CC2)n[nH]1,130
3,Nc1nnc(N2CCC(N3Cc4ccccc4OC[C@@H]3Cc3ccc(Cl)cc3)CC2)[nH]1,3400
4,Nc1nc(N2CCC(N(CCc3ccc(Cl)cc3)Cc3cccc(C(F)(F)F)c3)CC2)n[nH]1,1600

# Tested on: not listed separately
# Assay: Tmax in Sprague-Dawley rat at 10 mg/kg, po administered as single dose measured after 24 hrs by LC-MS/MS analysis
# Type: ADME, organism-based
# Details: in vivo
row,Structure (SMILES),Tmax [min]
1,Nc1nnc(N2CCC(N3Cc4ccccc4OC[C@@H]3Cc3ccc(Cl)cc3)CC2)[nH]1,30

# Tested on: not listed separately
# Assay: Half life in Sprague-Dawley rat at 10 mg/kg, po administered as single dose measured after 24 hrs by LC-MS/MS analysis
# Type: ADME, organism-based
# Details: in vivo
row,Structure (SMILES),half-life [min]
1,Nc1nnc(N2CCC(N3Cc4ccccc4OC[C@@H]3Cc3ccc(Cl)cc3)CC2)[nH]1,252

# Tested on: not listed separately
# Assay: Mean residence time in Sprague-Dawley rat at 10 mg/kg, po administered as single dose measured after 24 hrs by LC-MS/MS analysis
# Type: ADME, organism-based
# Details: in vivo
row,Structure (SMILES),MRT [min]
1,Nc1nnc(N2CCC(N3Cc4ccccc4OC[C@@H]3Cc3ccc(Cl)cc3)CC2)[nH]1,252

# Biological target: T1, Voltage-gated inwardly rectifying potassium channel KCNH2
# Assay: Inhibition of human ERG expressed in CHO-K1 cells by automated Qpatch-clamp assay
# Type: cell-based
# Details: not given
row,Structure (SMILES),IC50 [nM]
1,Nc1nnc(N2CCC(N3Cc4ccccc4OC[C@@H]3Cc3ccc(Cl)cc3)CC2)[nH]1,23000
